Source: ChEMBL document CHEMBL1201862, “PubChem BioAssay data set” (2004)
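96-well plates; 48 h exposure; 5 concentrations. Endpoints by linear interpolation between flanking doses. Not reached: highest tested concentration assigned. GI50 is the concentration that inhibits growth by half.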 Active and inactive are the calls of the source. Cut-off read from the data, not from the text of the source: active = GI50 up to about 1.1 µM and inactive = higher.

Columns and labels:
Assay in all cases: NCI anticancer screen, dose series, 48 h
[1] = tested on: NCI-H226
[2] = tested on: UACC-257
[3] = tested on: SF-268
[4] = tested on: SN12C
[5] = tested on: HCT-15
[6] = tested on: NCI-H23
[7] = tested on: U-251
[8] = tested on: COLO 205
[9] = tested on: ACHN
[10] = tested on: SK-MEL-28
[11] = tested on: A549
[12] = tested on: HOP-92
[13] = tested on: RXF 393
[14] = tested on: MOLT-4
[15] = tested on: EKVX
[16] = tested on: NCI-H522
[17] = tested on: HOP-18
[18] = tested on: OVCAR-8
[19] = tested on: HL-60
[20] = tested on: HCC 2998
[21] = tested on: LXFL 529
[22] = tested on: K562
[23] = tested on: KM12
[24] = tested on: SW-620
[25] = tested on: SK-MEL-5
[26] = tested on: DMS-114
[27] = tested on: UO-31
[28] = tested on: M19-MEL
[29] = tested on: HOP-62
[30] = tested on: OVCAR-5
[31] = tested on: KM-20L2
[32] = tested on: SNB-75
[33] = tested on: SNB-19
[34] = tested on: SF-295
[35] = tested on: SR
[36] = tested on: IGROV-1
[37] = tested on: RPMI-8226
[38] = tested on: OVCAR-4
[39] = tested on: DLD-1
[40] = tested on: SK-OV-3
[41] = tested on: HCT-116
[42] = tested on: M14
[43] = tested on: UACC-62
[44] = tested on: Malme-3M
[45] = tested on: NCI-H460
[46] = tested on: OVCAR-3
[47] = tested on: HT-29
[48] = tested on: SK-MEL-2
[49] = tested on: 786-0
[50] = tested on: SF-539
[51] = tested on: SNB-78
[52] = tested on: CCRF-CEM
[53] = tested on: DMS-273
[54] = tested on: T47D
[55] = tested on: A498
[56] = tested on: MDA-MB-435
[57] = tested on: NCI/ADR-RES
[58] = tested on: MDA-N
[59] = tested on: TK-10
[60] = tested on: BT-549
[61] = tested on: MCF7
[62] = tested on: CAKI-1
[63] = tested on: LOX IMVI
[64] = tested on: Hs-578T
[65] = tested on: PC-3
[66] = tested on: MDA-MB-231
[67] = tested on: DU-145

Measured: GI50

C=C[Si](C)(C)COC(=O)/C(C#N)=C/C=C/c1ccccc1
78.2 µM: [5]
inactive: [1] > 100 µM | [2] > 100 µM | [3] > 100 µM | [4] > 100 µM | [6] > 100 µM | [7] > 100 µM | [8] > 100 µM | [9] > 100 µM | [10] > 100 µM | [11] > 100 µM | [12] > 100 µM | [13] 40.6 µM | [14] 28.7 µM | [15] > 100 µM | [16] 46.3 µM | [17] > 100 µM | [18] > 100 µM | [19] 39.2 µM | [20] > 100 µM | [21] 47.5 µM | [22] 59 µM | [23] > 100 µM | [24] 76 µM | [25] > 100 µM | [26] > 100 µM | [27] > 100 µM | [28] 99.5 µM | [29] > 100 µM | [30] > 100 µM | [31] > 100 µM | [32] 34.6 µM | [33] > 100 µM | [34] > 100 µM | [35] 25.2 µM | [36] > 100 µM | [37] 37.2 µM | [38] > 100 µM | [39] > 100 µM | [40] > 100 µM | [41] > 100 µM | [42] > 100 µM | [43] 88.7 µM | [44] > 100 µM | [45] > 100 µM | [46] 34.8 µM | [47] > 100 µM | [48] > 100 µM | [49] > 100 µM | [50] > 100 µM | [51] > 100 µM | [52] 32.3 µM | [53] 85.7 µM

O=C(O)CN1CCNCCN(CC(=O)O)CC1
inactive: [1] 9.93 µM | [2] 15.2 µM | [3] 89.1 µM | [4] > 100 µM | [54] > 100 µM | [6] 3.25 µM | [7] 28.2 µM | [8] 2.01 µM | [55] 3.42 µM | [9] > 84.5 µM | [56] 11.6 µM | [10] 33.8 µM | [11] 14.8 µM | [12] 8.38 µM | [13] 13.6 µM | [14] 4.81 µM | [15] 12.5 µM | [57] 2.44 µM | [58] 11.4 µM | [16] 3.28 µM | [18] 2.63 µM | [19] 3.08 µM | [20] 10.6 µM | [59] 8.2 µM | [22] 3.76 µM | [60] > 100 µM | [23] 16.8 µM | [61] 3.73 µM | [24] 3.4 µM | [25] 5.48 µM | [27] 10.2 µM | [29] > 27.7 µM | [30] > 22.1 µM | [32] 12.3 µM | [62] > 100 µM | [33] > 100 µM | [34] > 69 µM | [35] 3.84 µM | [36] 12.6 µM | [37] 7.23 µM | [63] 17.3 µM | [38] 38.8 µM | [64] > 66.1 µM | [40] 38.4 µM | [65] 18.1 µM | [41] 3.36 µM | [42] 25.7 µM | [43] 12.6 µM | [66] > 34 µM | [44] 2.35 µM | [45] 7.66 µM | [46] 6.49 µM | [47] 2.38 µM | [48] 26.4 µM | [49] 5.48 µM | [67] > 100 µM | [50] 13 µM | [52] 5.47 µM
3.79 µM: [5]

C1=CC=C2NCCSCC/N=C3/C=CC=CC=C3NCCSCC/N=C\2C=C1
> 100 µM: [5]
inactive: [1] > 100 µM | [2] > 100 µM | [3] > 100 µM | [4] > 100 µM | [6] > 100 µM | [7] > 100 µM | [8] > 100 µM | [55] > 100 µM | [9] > 100 µM | [10] > 100 µM | [11] > 100 µM | [14] > 100 µM | [15] > 100 µM | [16] > 100 µM | [17] > 100 µM | [18] > 100 µM | [19] > 100 µM | [20] > 100 µM | [59] > 100 µM | [21] > 100 µM | [22] > 100 µM | [23] > 100 µM | [24] > 100 µM | [25] > 100 µM | [26] > 100 µM | [27] > 100 µM | [28] > 100 µM | [29] > 100 µM | [30] > 100 µM | [31] > 100 µM | [32] > 100 µM | [62] > 100 µM | [33] > 100 µM | [34] > 100 µM | [36] > 100 µM | [37] > 100 µM | [63] > 100 µM | [38] > 100 µM | [39] > 100 µM | [40] > 100 µM | [41] > 100 µM | [42] > 100 µM | [43] > 100 µM | [44] > 100 µM | [45] > 100 µM | [46] > 100 µM | [47] > 100 µM | [48] > 100 µM | [49] > 100 µM | [51] > 100 µM | [52] > 100 µM | [53] > 100 µM
